In brackets after ≈: the same amount, converted by molar mass. Entries after “also recorded” stand apart in the source; their conditions may differ. Where two headings read alike, the source gives them in different places.
How the values were obtained:
PBMCs = assay: Toxicity to PBMC, XTT; type: cell-based, human
CEM-SS cells = type: cell-based
[1] = system: Streptococcus pneumoniae ATCC 6303; assay: Microdilution broth MIC assay; type: cell-based; details: ATCC6303, Sp, Mueller Hinton broth, about 17 hr
Method: Test organisms. The test organisms are listed in Table 5 along with their source. Prior to assay, overnight bacterial slant cultures were used to inoculate Mueller Hinton broth followed by incubation for 5-7 hr. Each culture was then standardized turbidimetrically to a viable count of about 10^6 colony forming units/ml and used to inoculate the mirotiter assay plates. The viable count after addition to the plates was about 5×10^5 CFU/ml.
Experimental design. The MIC of the test compounds for the bacterial strains was determined with a microdilution broth assay in 96 well microtiter plates. The test compounds were dissolved in DMSO and then diluted 10-fold in assay medium (Mueller Hinton broth) to obtain final concentrations of 0.128, 1.28, 12.8, and 128 μg/ml. A viability control containing DMSO, diluted in the same manner as the test compounds, was used to confirm that the DMSO was not inhibitory by itself. Trimethoprim (TMP) was used as a positive drug control. The assay plates were incubated at 37° C. for about 17 hr and each assay well observed visually for growth. The MIC was determined at the lowest concentration of drug which inhibited growth. [drawing 32]

HIV-1 = assay: microbe, parasite or virus in culture; details: Human immunodeficiency virus 1, CEM-SS
Method: This is a cytoprotection assay that uses the T-lymphoblastoid tumor cell line CEM-SS and laboratory adapted strains of HIV-1. Upon infection with HIV, the CEM-SS cells form syncytia and eventually die, producing large amounts of progeny virus over the course of 4-6 days at the standard multiplicity of infection (0.01). The antiviral assay measures the ability of a given compound to inhibit the HIV-induced cell killing. […] The activity of the compound is evaluated by measuring cell viability at 6 days post-infection and comparing the viability to that obtained in cell control (cells only), virus control (cells and virus only) and toxicity control (cells and compound only) wells.
Efficacy of the compound in cell culture is measured by increased cell viability in CEM-SS assays or reduction in virus production in PBMC assays. The data obtained yields a dose response curve which can be evaluated to determine doses which yield 25%, 50% and 95% protection from HIV-induced cell killing or virus production. […] These concentrations are reported as the TC25, TC50 and TC95 values. The ratio of toxicity to efficacy constitutes the therapeutic index TC50/IC50.
CEM-SS cells assay measures the ability of the compound to inhibit HIV induced cell killing. The cells are stained at 6 days post-infection with the tetrazolium dye XTT which is converted to a colored formazan product by the mitochondria of viable cells. Protection from cell killing afforded by the test compound is measured by comparison to both cell controls and virus controls. Cell killing in this system is directly related to the amount of virus produced by the infected cells and XTT-formazan production is proportional to the number of viable cells in each well. Toxicity of the compound to the target cells is measured in parallel.
CEM-SS cells (or other established human cell line used in these experiments) were passaged in T-150 flasks for use in the assay. On the day preceding the assay, the cells were split 1:2 to assure they would be in an exponential growth phase at time of infection. On the day of assay the cells were washed twice with tissue culture medium and resuspended in fresh tissue culture medium. Total cell and viability counting was performed using hemacytometer and trypan blue dye exclusion. Cell viability was greater than 95% for the cells to be utilized in the assay. The cells were pelleted and resuspended at 2.5×10^4 cells per ml in tissue culture medium. Cells were added to the drug-containing plates in a volume of 50 μl.
A pretitered aliquot of virus was removed from the freezer (−80° C.) and allowed to thaw slowly to room temperature in a biological safety cabinet. The virus was resuspended and diluted into tissue culture medium such that the amount of virus added to each well in a volume of 50 μl will be the amount determined to give complete cell killing at 6 days post-infection. In general the virus pools produced with the IIIB isolate of HIV required the addition of 5 μl of virus per well.
Each plate contained cell control wells (cells only), virus control wells (cells plus virus), drug toxicity control wells (cells plus drug only), drug colorimetric control wells (drug only) as well as experimental wells (drug plus cells plus virus).
After 6 days of incubation at 37° C. in a 5% CO2 incubator the test plates were analyzed by staining with the tetrazolium dye XTT. XTT-tetrazolium is metabolized by the mitochondrial enzymes of metabolically active cells to a soluble formazan product, allowing the rapid quantitative analysis of the inhibition of HIV-induced cell killing by anti-HIV test substances. On day 6 post-infection plates were removed from the incubator and observed.

Question: Which results are given for `N=C(NCCCCCCNC(=N)NC(=N)N1CCN(c2cc3c(cc2F)c(=O)c(C(=O)O)cn3C2CC2)CC1)NC(=N)N1CCN(c2cc3c(cc2F)c(=O)c(C(=O)O)cn3C2CC2)CC1` [BVS-10A]?
Answer: TOXICITY % CC (PBMCs; 0.01 μg/ml, PBMC): 103.2%; TOXICITY VALUES (XTT O.D. @ 450/650 nm) MEAN (PBMCs; 0.01 μg/ml, PBMC): 3.415 O.D.; TOXICITY % CC (PBMCs; 0.032 μg/ml, PBMC): 103.6%; TOXICITY VALUES (XTT O.D. @ 450/650 nm) MEAN (PBMCs; 0.032 μg/ml, PBMC): 3.426 O.D.; TOXICITY % CC (PBMCs; 0.1 μg/ml, PBMC): 97.1%; TOXICITY VALUES (XTT O.D. @ 450/650 nm) MEAN (PBMCs; 0.1 μg/ml, PBMC): 3.214 O.D.; TOXICITY % CC (PBMCs; 0.32 μg/ml, PBMC): 100.9%; TOXICITY VALUES (XTT O.D. @ 450/650 nm) MEAN (PBMCs; 0.32 μg/ml, PBMC): 3.339 O.D.; TOXICITY % CC (PBMCs; 1 μg/ml, PBMC): 96.2%; TOXICITY VALUES (XTT O.D. @ 450/650 nm) MEAN (PBMCs; 1 μg/ml, PBMC): 3.181 O.D.; TOXICITY % CC (PBMCs; 3.2 μg/ml, PBMC): 103.5%; TOXICITY VALUES (XTT O.D. @ 450/650 nm) MEAN (PBMCs; 3.2 μg/ml, PBMC): 3.424 O.D.; TOXICITY % CC (PBMCs; 10 μg/ml, PBMC): 108.3%; TOXICITY VALUES (XTT O.D. @ 450/650 nm) MEAN (PBMCs; 10 μg/ml, PBMC): 3.583 O.D.; TOXICITY % CC (PBMCs; 32 μg/ml, PBMC): 97.3%; TOXICITY VALUES (XTT O.D. @ 450/650 nm) MEAN (PBMCs; 32 μg/ml, PBMC): 3.220 O.D.; TOXICITY % CC (PBMCs; 100 μg/ml, PBMC): 51.2%; TOXICITY VALUES (XTT O.D. @ 450/650 nm) MEAN (PBMCs; 100 μg/ml, PBMC): 1.695 O.D.; 50% inhibition of cell growth (PBMCs; PBMC cultures): approximately 100 μg/mL; TC50 (PBMCs; PBMC, XTT): TC50 (μg/ml) = >100; toxicity in PBMCs (PBMCs; at 100 μg/mL): Toxicity was detected; % CELL VIABILITY (CEM-SS cells; 0.00032 uG/mL, CEM-SS): 100%; CYTOTOXICITY TEST VALUES MEAN O.D. (CEM-SS cells; 0.00032 uG/mL, CEM-SS): 1.317 O.D.; % CELL VIABILITY (CEM-SS cells; 0.001 uG/mL, CEM-SS): 100%; CYTOTOXICITY TEST VALUES MEAN O.D. (CEM-SS cells; 0.001 uG/mL, CEM-SS): 1.323 O.D.; % CELL VIABILITY (CEM-SS cells; 0.0032 uG/mL, CEM-SS): 100%; CYTOTOXICITY TEST VALUES MEAN O.D. (CEM-SS cells; 0.0032 uG/mL, CEM-SS): 1.307 O.D.; % CELL VIABILITY (CEM-SS cells; 0.01 uG/mL, CEM-SS): 100%; CYTOTOXICITY TEST VALUES MEAN O.D. (CEM-SS cells; 0.01 uG/mL, CEM-SS): 1.364 O.D.; % CELL VIABILITY (CEM-SS cells; 0.032 uG/mL, CEM-SS): 100%; CYTOTOXICITY TEST VALUES MEAN O.D. (CEM-SS cells; 0.032 uG/mL, CEM-SS): 1.339 O.D.; % CELL VIABILITY (CEM-SS cells; 0.1 uG/mL, CEM-SS): 100%; CYTOTOXICITY TEST VALUES MEAN O.D. (CEM-SS cells; 0.1 uG/mL, CEM-SS): 1.369 O.D.; % CELL VIABILITY (CEM-SS cells; 0.32 uG/mL, CEM-SS): 100%; CYTOTOXICITY TEST VALUES MEAN O.D. (CEM-SS cells; 0.32 uG/mL, CEM-SS): 1.385 O.D.; % CELL VIABILITY (CEM-SS cells; 1 uG/mL, CEM-SS): 100%; CYTOTOXICITY TEST VALUES MEAN O.D. (CEM-SS cells; 1 uG/mL, CEM-SS): 1.512 O.D.; % CELL VIABILITY (CEM-SS cells; 3.2 uG/mL, CEM-SS): 100%; CYTOTOXICITY TEST VALUES MEAN O.D. (CEM-SS cells; 3.2 uG/mL, CEM-SS): 1.556 O.D.; % CELL VIABILITY (CEM-SS cells; 10 uG/mL, CEM-SS): 100%; CYTOTOXICITY TEST VALUES MEAN O.D. (CEM-SS cells; 10 uG/mL, CEM-SS): 1.804 O.D.; % CELL VIABILITY (CEM-SS cells; 32 uG/mL, CEM-SS): 100%; CYTOTOXICITY TEST VALUES MEAN O.D. (CEM-SS cells; 32 uG/mL, CEM-SS): 2.390 O.D.; % CELL VIABILITY (CEM-SS cells; 100 uG/mL, CEM-SS): 100%; CYTOTOXICITY TEST VALUES MEAN O.D. (CEM-SS cells; 100 uG/mL, CEM-SS): 1.797 O.D.; TC 25% (CEM-SS cells; CEM-SS, XTT): >100.00 UG/mL; TC 50% (CEM-SS cells; CEM-SS, XTT): >100.00 UG/mL; TC 95% (CEM-SS cells; CEM-SS, XTT): >100.00 UG/mL; toxicity in CEM-SS cells (CEM-SS cells; at concentrations up to 100 μg/mL): nontoxic; also recorded: No toxicity; MIC [1]: 1.28 to 12.8 µg/mL (≈ 1.4 to 14 µM); IC50 (HIV-1): 16.6 µg/mL (≈ 18.2 µM); IC50 (HIV-1; read-out: 50% inhibition of cell killing): 12 µg/mL (≈ 13.1 µM); IC50 (HIV-1; read-out: calculated IC50): 16.6 µg/mL (≈ 18.2 µM)

From patent US6699989B1, “Antiviral and antimicrobial guanidine or biguanidine derivatives” (priority 2000, dated 2004)
